By pIC50 is commonly meant the negative decadic logarithm of the IC50, by convention in mol/L. Read a low pIC50 as a high IC50.

pIC50: −log10 of the molar value. Some results are limits rather than exact numbers.

Format in all cases: cell-based
For one experiment, the target named is T1, human TLR7 (Homo sapiens, UniProt Q9NYK1).
T1 construct: host or cells: HEK-Blue cells (HEK293-derived reporter line)
T1 sequence (Q9NYK1 27-1049): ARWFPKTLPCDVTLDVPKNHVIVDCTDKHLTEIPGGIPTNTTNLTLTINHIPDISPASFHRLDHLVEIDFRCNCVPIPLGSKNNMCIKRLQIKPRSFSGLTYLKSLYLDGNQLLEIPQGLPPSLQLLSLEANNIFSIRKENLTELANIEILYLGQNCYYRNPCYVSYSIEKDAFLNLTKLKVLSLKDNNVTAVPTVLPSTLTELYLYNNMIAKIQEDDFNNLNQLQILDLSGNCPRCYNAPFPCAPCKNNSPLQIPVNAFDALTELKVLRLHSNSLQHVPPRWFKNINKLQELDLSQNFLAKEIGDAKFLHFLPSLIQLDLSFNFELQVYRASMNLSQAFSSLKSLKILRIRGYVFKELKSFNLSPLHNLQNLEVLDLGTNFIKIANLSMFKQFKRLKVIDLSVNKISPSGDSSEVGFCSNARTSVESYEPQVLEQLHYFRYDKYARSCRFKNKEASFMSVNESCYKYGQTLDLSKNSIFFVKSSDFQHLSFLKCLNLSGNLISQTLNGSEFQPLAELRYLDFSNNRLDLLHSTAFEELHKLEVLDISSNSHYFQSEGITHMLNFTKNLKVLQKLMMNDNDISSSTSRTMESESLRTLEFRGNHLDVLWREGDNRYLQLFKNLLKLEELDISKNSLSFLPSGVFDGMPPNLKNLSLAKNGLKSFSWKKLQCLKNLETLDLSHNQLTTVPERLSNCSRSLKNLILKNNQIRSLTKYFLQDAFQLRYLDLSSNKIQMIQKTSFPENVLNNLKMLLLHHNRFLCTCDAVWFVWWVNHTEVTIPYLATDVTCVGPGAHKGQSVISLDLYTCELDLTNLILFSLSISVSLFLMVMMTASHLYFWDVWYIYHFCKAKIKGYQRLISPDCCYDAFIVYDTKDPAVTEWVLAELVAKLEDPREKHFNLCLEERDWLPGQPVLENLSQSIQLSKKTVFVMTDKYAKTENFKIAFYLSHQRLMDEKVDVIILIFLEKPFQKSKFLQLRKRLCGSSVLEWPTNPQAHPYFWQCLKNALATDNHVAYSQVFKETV
Description: TLR7 inhibition reporter assay (HEK-Blue cells, SEAP reporter, gardiquimod stimulation). As to conditions: HEK-Blue cells overexpressing human TLR7, SEAP reporter, gardiquimod 7.5 μM. The essentials:
(§1)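 HEK-Blue cells overexpressing human TLR7, TLR8 or TLR9 (NF-κB/AP-1-driven SEAP) pre-treated 30 min at room temperature with compound (0.05 nM–50 μM), then stimulated with gardiquimod 7.5 μM (TLR7), R848 15.9 μM (TLR8) or ODN2006 5 nM (TLR9). SEAP read colorimetrically after 22 h at 37 °C; % inhibition calculated.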
Background: In a reporter assay the amount or activity of a reporter protein is the signal.

For another experiment, the target named is T2, human TLR8 (Homo sapiens, UniProt Q9NR97).
T2 construct: host or cells: HEK-Blue cells (HEK293-derived reporter line)
T2 sequence (Q9NR97 27-1041): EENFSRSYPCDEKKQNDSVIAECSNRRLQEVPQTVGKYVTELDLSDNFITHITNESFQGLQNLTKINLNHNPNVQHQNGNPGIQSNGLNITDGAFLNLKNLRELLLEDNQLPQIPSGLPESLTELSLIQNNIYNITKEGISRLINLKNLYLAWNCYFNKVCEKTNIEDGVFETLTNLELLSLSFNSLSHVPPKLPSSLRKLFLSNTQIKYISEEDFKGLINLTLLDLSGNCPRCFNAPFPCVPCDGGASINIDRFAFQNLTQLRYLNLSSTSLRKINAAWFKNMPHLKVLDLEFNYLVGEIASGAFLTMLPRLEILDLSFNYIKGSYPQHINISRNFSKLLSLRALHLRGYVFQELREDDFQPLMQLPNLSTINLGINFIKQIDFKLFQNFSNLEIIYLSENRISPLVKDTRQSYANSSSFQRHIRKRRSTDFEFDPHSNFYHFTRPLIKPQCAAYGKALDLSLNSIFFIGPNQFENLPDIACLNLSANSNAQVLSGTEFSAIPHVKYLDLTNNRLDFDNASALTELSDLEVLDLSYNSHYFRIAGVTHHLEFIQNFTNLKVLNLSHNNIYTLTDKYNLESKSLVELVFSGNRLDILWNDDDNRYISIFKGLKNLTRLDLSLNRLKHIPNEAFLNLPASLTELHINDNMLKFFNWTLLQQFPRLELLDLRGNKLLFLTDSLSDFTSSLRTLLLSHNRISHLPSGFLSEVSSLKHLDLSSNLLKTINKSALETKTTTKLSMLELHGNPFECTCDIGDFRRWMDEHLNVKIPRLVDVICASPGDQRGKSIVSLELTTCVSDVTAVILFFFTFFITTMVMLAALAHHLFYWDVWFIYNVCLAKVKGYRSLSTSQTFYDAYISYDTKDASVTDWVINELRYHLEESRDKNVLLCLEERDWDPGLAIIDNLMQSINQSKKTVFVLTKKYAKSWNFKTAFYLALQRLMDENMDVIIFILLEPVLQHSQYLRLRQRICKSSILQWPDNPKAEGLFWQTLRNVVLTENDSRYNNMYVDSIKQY
Description: TLR8 inhibition reporter assay (HEK-Blue cells, SEAP reporter, R848 stimulation). As to conditions: HEK-Blue cells overexpressing human TLR8, SEAP reporter, R848 15.9 μM. An outline of the steps:
as §1

In the next experiment the target is T3, human TLR9 (Homo sapiens, UniProt Q9NR96).
T3 construct: host or cells: HEK-Blue cells (HEK293-derived reporter line)
T3 sequence (Q9NR96 26-1032): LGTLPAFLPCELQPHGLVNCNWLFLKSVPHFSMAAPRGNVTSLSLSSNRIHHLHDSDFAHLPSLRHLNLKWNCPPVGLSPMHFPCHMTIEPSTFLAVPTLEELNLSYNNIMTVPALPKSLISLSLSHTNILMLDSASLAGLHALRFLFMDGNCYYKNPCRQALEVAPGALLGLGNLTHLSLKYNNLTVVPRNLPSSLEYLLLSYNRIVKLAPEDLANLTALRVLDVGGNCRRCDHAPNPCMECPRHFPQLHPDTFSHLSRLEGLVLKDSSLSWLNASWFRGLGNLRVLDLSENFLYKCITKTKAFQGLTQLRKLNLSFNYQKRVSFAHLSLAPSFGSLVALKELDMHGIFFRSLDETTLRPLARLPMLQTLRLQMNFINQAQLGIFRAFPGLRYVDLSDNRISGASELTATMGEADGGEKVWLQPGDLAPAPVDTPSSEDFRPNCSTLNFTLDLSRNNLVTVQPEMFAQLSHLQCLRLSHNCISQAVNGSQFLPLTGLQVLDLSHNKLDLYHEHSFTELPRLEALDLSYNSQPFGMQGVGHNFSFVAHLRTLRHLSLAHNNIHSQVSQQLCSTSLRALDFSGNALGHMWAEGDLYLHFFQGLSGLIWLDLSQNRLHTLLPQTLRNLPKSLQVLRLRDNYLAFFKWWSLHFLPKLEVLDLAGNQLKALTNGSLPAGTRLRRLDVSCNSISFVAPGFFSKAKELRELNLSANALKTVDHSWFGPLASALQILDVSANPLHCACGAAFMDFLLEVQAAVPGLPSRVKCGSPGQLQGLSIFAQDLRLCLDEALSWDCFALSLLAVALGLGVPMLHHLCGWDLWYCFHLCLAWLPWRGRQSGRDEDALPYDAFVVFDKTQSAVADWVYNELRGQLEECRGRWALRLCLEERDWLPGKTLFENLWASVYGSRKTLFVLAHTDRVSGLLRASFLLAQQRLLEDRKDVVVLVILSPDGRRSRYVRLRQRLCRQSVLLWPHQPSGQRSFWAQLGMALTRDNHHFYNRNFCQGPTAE
Description: TLR9 inhibition reporter assay (HEK-Blue cells, SEAP reporter, ODN2006 stimulation). As to conditions: HEK-Blue cells overexpressing human TLR9, SEAP reporter, ODN2006 5 nM. The essentials: as §1

As for `CC(C)c1c(-c2cn(C)c3ncccc23)[nH]c2ccc(C3CCN(CCC#N)CC3)cc12` [Example 959, 3-(4-(3-isopropyl-2-(1-methyl-1H-pyrrolo[2,3-b]pyridin-3-yl)-1H-indol-5-yl)piperidin-1-yl)propanenitrile], the pIC50 is > 7.00 against human TLR7, > 7.00 on human TLR8 and < 4.30 against human TLR9.
For the compound `Cc1cc(-c2[nH]c3ccc(C4CCN(CCCC(F)(F)F)CC4)cc3c2C(C)C)cn2nncc12` [Example 960, 6-(3-isopropyl-5-(1-(4,4,4-trifluorobutyl)piperidin-4-yl)-1H-indol-2-yl)-4-methyl-[1,2,3]triazolo[1,5-a]pyridine], the figures for the negative-log IC50 (pIC50) on human TLR7, at human TLR8 and against human TLR9 were 6.00 to 7.00, 6.00 to 7.00 and 4.30 to 6.00, respectively.
For the compound `Cc1cc(-c2[nH]c3ccc(C4CCN(CC#N)CC4)cc3c2C(C)C)cn2nnnc12` [Example 961, 2-(4-(3-isopropyl-2-(8-methyltetrazolo[1,5-a]pyridin-6-yl)-1H-indol-5-yl)piperidin-1-yl)acetonitrile], the pIC50 is > 7.00 at human TLR7, > 7.00 against human TLR8 and 6.00 to 7.00 against human TLR9.
In the case of `Cc1cc(-c2[nH]c3ccc(C4CCN(CCC(F)(F)F)CC4)cc3c2C(C)C)cn2nnnc12` [Example 962, 6-(3-isopropyl-5-(1-(3,3,3-trifluoropropyl)piperidin-4-yl)-1H-indol-2-yl)-8-methyltetrazolo[1,5-a]pyridine], the pIC50 against human TLR7 is > 7.00; at human TLR8 it was > 7.00; at human TLR9, < 4.30.
On to `Cc1cc(-c2[nH]c3ccc(C4CCN(CCCC(F)(F)F)CC4)cc3c2C(C)C)cn2nnnc12` [Example 963, 6-(3-isopropyl-5-(1-(4,4,4-trifluorobutyl)piperidin-4-yl)-1H-indol-2-yl)-8-methyltetrazolo[1,5-a]pyridine], for which the negative logarithm of the IC50 (pIC50) was > 7.00 against human TLR7, > 7.00 against human TLR8 and 4.30 to 6.00 on human TLR9.
As to `Cc1cc(-c2[nH]c3ccc(C4CCN(CC#N)CC4)cc3c2C(C)C)cc2cnnn12` [Example 964, 2-(4-(3-isopropyl-2-(7-methyl-[1,2,3]triazolo[1,5-a]pyridin-5-yl)-1H-indol-5-yl)piperidin-1-yl)acetonitrile], the pIC50 against human TLR7 was > 7.00; at human TLR8, > 7.00; against human TLR9, 6.00 to 7.00.
`CC(C)c1c(-c2ccnc3[nH]ncc23)[nH]c2ccc(C3CCN(Cc4ccc(OCCCN(C)C)cc4)CC3)cc12` [Example 965, 3-(4-((4-(3-isopropyl-2-(1H-pyrazolo[3,4-b]pyridin-4-yl)-1H-indol-5-yl)piperidin-1-yl)methyl)phenoxy)-N,N-dimethylpropan-1-amine]: the pIC50 is > 7.00 against human TLR7, > 7.00 against human TLR8 and 6.00 to 7.00 at human TLR9.
Consider `CC(C)c1c(-c2ccnc3[nH]ncc23)[nH]c2cc(F)c(C3CCN(CC4CCN(C(C)C)CC4)CC3)cc12` [Example 966, 4-(6-fluoro-3-isopropyl-5-(1-((1-isopropylpiperidin-4-yl)methyl)piperidin-4-yl)-1H-indol-2-yl)-1H-pyrazolo[3,4-b]pyridine], for which the pIC50 at human TLR7, against human TLR8 and on human TLR9 was > 7.00 throughout.
For the compound `CC(C)c1c(-c2ccnc3[nH]ncc23)[nH]c2ccc(C3CCN(CC4CCN(C(C)C)CC4)CC3)c(F)c12` [Example 967, 4-(4-fluoro-3-isopropyl-5-(1-((1-isopropylpiperidin-4-yl)methyl)piperidin-4-yl)-1H-indol-2-yl)-1H-pyrazolo[3,4-b]pyridine], the negative-log IC50 (pIC50) on human TLR7 is 6.00 to 7.00; on human TLR8, 6.00 to 7.00; against human TLR9, 4.30 to 6.00.
Consider `CNCCN1CCC(c2ccc3[nH]c(-c4ccc5scnc5c4)c(C)c3c2)CC1` [compound 659], for which the negative-log IC50 (pIC50) is 4.30 to 6.00 against human TLR7, < 5.51 at human TLR8 and 6.00 to 7.00 at human TLR9.

Source of the values: US11739098B2 (BRISTOL-MYERS SQUIBB COMPANY, priority 2017, dated 2023).
